Test results as given in PubChem BioAssay AID720577 (The Scripps Research Institute Molecular Screening Center, 2013).
Activity calls are given as the source filed them. How the calls were made is not given here.

Biological target: CCHF virus vOTU protease domain (L polyprotein)
Test: CCHF virus vOTU protease inhibition, Pep AMC substrate counterscreen, fluorescence, confirmatory IC50 (AID 720577)
Details: purified vOTU

Structure (SMILES)	IC50
Cc1nc2c(o1)C(=O)c1ccccc1C2=Nc1ccccc1	inactive
CCn1nc(/C=C/c2ccccc2)nc2c(=O)n(C)c(=O)nc1-2	0.487 µM
Cc1cc2c(cc1C)C(=O)C(Br)=C(N)C2=O	inactive
Cc1c(C=O)c(Cl)n(C)c(=O)c1C#N	inactive
O=C1C=C(Nc2ccccc2)c2ccccc2C1=O	inactive
CCCCCCCCN1C(=O)[C@@H](CC(=O)NCCCOCCCC)C[C@@]2(C(=O)OC)C1=C[C@H](C(C)C)O[C@@H]2C1CC1	inactive
NS(=O)(=O)c1ccc(NC(=O)COC(=O)c2ccc([N+](=O)[O-])s2)cc1	inactive
O=C1C(Cl)=C(NCCCO)C(=O)c2ccccc21	inactive
Cc1ccc(N2C(=O)[C@@H]3[C@H](C2=O)C2c4ccccc4C=CN2[C@@H]3C(=O)c2ccco2)cc1 (stereo partly specified)	5.2 µM
CC(=O)NC1=C(N(C)C2CCS(=O)(=O)C2)C(=O)c2ccccc2C1=O (stereo unspecified)	inactive
O=C1NNC(c2ccccc2)=N/C1=C\c1ccccc1Cl	inactive
O=C(NC1=C(NC2CCS(=O)(=O)C2)C(=O)c2ccccc2C1=O)c1ccccc1 (stereo unspecified)	inactive
O=C(COC(=O)c1ccc([N+](=O)[O-])s1)Nc1ncc(C(F)(F)F)cc1Cl	inactive
O=C1C(N2CCOCC2)=C(n2nnc3ccccc32)C(=O)c2ccccc21	6.3 µM
O=C(O)c1ccc(NC2=C(n3nnc4ccccc43)C(=O)c3ccccc3C2=O)cc1	inactive
CCC(C)n1c(NC(=O)c2ccccc2)c(C#N)c2nc3ccccc3nc21 (stereo unspecified)	> 12.7 µM (inactive)
CCOC(=O)c1c2c(n(Cc3ccccc3)c1C)C(=O)C(=O)c1ccccc1-2	1.49 µM
O=C(NC1=CC(=O)c2ccccc2C1=O)c1ccccc1	inactive
COC1=C(N)C(=O)c2nc(C)ccc2C1=O	4.98 µM
COc1ccc(/C=N/NC(=O)c2nn(-c3ccc(Cl)cc3)c(=O)c3c(N)scc23)cc1	inactive
CCC(CNc1cc(OC)cc2cccnc12)NC1CCCCC1 (stereo unspecified)	6.96 µM
Cc1ccc(NC2=CC(=O)C(=O)c3ccccc32)cc1	inactive

Structure (SMILES)	IC50
O=C1C=C(N2CC2)c2ccccc2C1=O	8.1 µM
NC1=CC(=O)C(=O)c2cccnc21	4.94 µM
Cc1ccccc1-c1cc2c(nn1)-c1ccccc1C2=O	2.23 µM
O=C(OCc1nnc(-c2ccccc2)o1)c1ccc([N+](=O)[O-])s1	inactive
Cc1ccc(NC2=C(N3CCOCC3)C(=O)c3ccccc3C2=O)cc1	inactive
O=C(O)CSc1cc(NS(=O)(=O)c2ccc(Br)cc2)c2ccccc2c1O	inactive
COc1cc(NCCCC(C)N)c2ncccc2c1 (stereo unspecified)	4.6 µM
CCCCCCCCCCCCCCCC[n+]1cccc2ccccc21	4.2 µM
CC(=O)[C@@H]1[C@@H]2C(=O)N(c3ccc(F)c(Cl)c3)C(=O)[C@@H]2C2c3ccccc3C=CN21 (stereo partly specified)	inactive
O=c1[nH]c(Nc2ccccc2)cc2cc(Br)ccc12	1.45 µM
COc1cc(CCNC2=CC(=O)c3ncccc3C2=O)ccc1O	inactive
CN1CCC/C1=C/C=C1\SC(=S)NC1=O	inactive
CC(C)N(C(=O)Nc1ccc2nsnc2c1)C(C)C	> 115 µM (inactive)
C=CCN(CC=C)C(=S)Nc1ccc2nsnc2c1	inactive
CCOC(=O)/C=C(\C)Sc1cc(O)c2ccccc2c1O	4.61 µM
COC(CNC(=O)c1ccc2c3c(onc13)-c1ccccc1C2=O)OC	inactive
CC1(C)C=C2C(=NN(c3ccccc3)C(N)=C2C#N)CO1	inactive
CN(C)c1ncc(C2=C(Cl)C(=O)C(N3CCCC3)=C(Cl)C2=O)s1	inactive
Clc1ccc(C2=CSC3=Nc4cccc5cccc(c45)N23)cc1	inactive
Nc1scc2c(C(=O)N/N=C/c3ccc(Cl)cc3)nn(-c3ccccc3)c(=O)c12	inactive
CC1COCC(C)N1C1=C(Cl)C(=O)c2ccccc2C1=O (stereo unspecified)	inactive
CC(=O)N(C1=C(N)C(=O)c2ccccc2C1=O)c1ccccc1	inactive

Structure (SMILES)	IC50
CC[C@H](CO)Oc1cc(NCc2cccc(N)c2)c2ncn(C(C)C)c2c1	inactive
CC(=O)N(C)c1ccc(N=Cc2cc3c(cc2[N+](=O)[O-])OCO3)cc1	inactive
CC(=O)Nc1ccc(S(=O)(=O)NC2=C(N3CCN(c4ccc(F)cc4)CC3)C(=O)c3ccccc3C2=O)cc1	inactive
NC1=C(Cl)C(=O)c2ccc(S(N)(=O)=O)cc2C1=O	0.387 µM
O=C(COC(=O)c1ccc([N+](=O)[O-])s1)NCc1ccc(F)cc1	inactive
Cc1ccccc1NC1=C/C(=N\S(=O)(=O)c2cccs2)c2ccccc2C1=O	1.04 µM
COc1ccc(S(=O)(=O)/N=C2\C=C(Nc3ccc(O)cc3)C(=O)c3ccccc32)cc1	1.33 µM
O=C1Cc2ccccc2C(=O)N1CCc1ccccc1	1.51 µM
CC(C)NC1=C(Cl)C(=O)c2ccccc2C1=O	inactive
O=[N+]([O-])c1ccccc1-c1ccc(C(=S)N2CCCC2)o1	inactive
O=S(=O)(Nc1cc(Sc2ncn[nH]2)c(O)c2ccccc12)c1ccccc1	2.16 µM
CCC(COC)Oc1cc(NCc2ccccc2)c2ncn(C(C)C)c2c1 (stereo unspecified)	inactive
O=C(O)c1ccc(S(=O)(=O)/N=C2\C=C(Nc3ccccc3F)C(=O)c3ccccc32)cc1	1.24 µM
CC(NC1=CC(=O)c2cccnc2C1=O)C(O)c1ccccc1 (stereo unspecified)	4.33 µM
CN=c1sc2c(n1C)C(=O)c1ccccc1C2=O	5.75 µM
Cc1cc(=O)c2c(o1)C(=O)c1occc1C2=O	inactive
O=C(N/N=C1\C/C(=N\NC(=O)c2ccncc2)c2ccccc21)c1ccncc1	1.81 µM
C[n+]1c(-c2ccccc2)cc2c(=Cc3ccc([N+](=O)[O-])cc3)c3ccccc3n21	4.14 µM
COc1ccccc1N=Nc1c(O)[nH]c(=S)[nH]c1=O	inactive
S=C(Nc1ccc2nsnc2c1)N1CCCCCC1	inactive
O=C1C(SCCO)=C(SCCO)C(=O)c2ccccc21	7.34 µM
COc1cc(C=c2c3ccccc3n3c2cc(-c2ccccc2)[n+]3C)cc(OC)c1OC	5.77 µM
